According to patent US20240360114A1 (SIRONAX LTD., priority 2021, published 2024):

System: HT-1080 cells
Assay: HT-1080 cell viability assay (ferroptosis induced by RSL3, Cell Titer-Glo)
Assay type: cell-based
Details: ferroptosis inducer RSL3, 20 hours, ferroptosis inhibitory activity, Table 2
Method in brief: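 Cells seeded overnight, then co-treated with RSL3 and compound (3-fold, 10-point dilution, top 1.1 μM) for 20 hours. Viability by CellTiter-Glo luminescence, normalized to untreated controls; EC50 from sigmoidal non-linear regression.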

Row | Structure (SMILES) | EC50 (Homo sapiens, HT-1080, 20 h) [nM] | also measured
1 | CNCC1CCC(Nc2ccc(C(C)(C)C)cc2)CC1 (stereo not drawn) [Compound 87, 4-(tert-butyl)-N-(4-((methylamino)methyl)cyclohexyl)aniline] | 0.1 to 100 | –
2 | NCC1CCC(Nc2ccc(C(F)(F)F)cc2)CC1 (stereo not drawn) [Compound 88, N-(4-(aminomethyl)cyclohexyl)-4-(trifluoromethyl)aniline] | 1000 to 10000 | –
3 | CN(C)C(=O)C1CCC(Nc2ccc(C3CCC(C)(C)CC3)cc2)CC1 (stereo not drawn) [Compound 89, 4-((4-(4,4-dimethylcyclohexyl)phenyl)amino)-N,N-dimethylcyclohexane-1-carboxamide] | 0.1 to 100 | –
4 | CC1(C)CCC(c2ccc(NC3CCC(CO)CC3)cc2)CC1 (stereo not drawn) [Compound 90] | 0.1 to 100 | –
5 | CC1(C)CCC(c2ccc(NC3CCOCC3)cc2)CC1 [Compound 93, N-(4-(4,4-dimethylcyclohexyl)phenyl)tetrahydro-2H-pyran-4-amine] | 0.1 to 100 | –
6 | CC1(C)CCC(c2ccc(NC3CC(N)C3)cc2)CC1 (stereo not drawn) [Compound 94, N1-(4-(4,4-dimethylcyclohexyl)phenyl)cyclobutane-1,3-diamine] | 0.1 to 100 | –
7 | CC(C)(C)c1ccc(NC2C3CC4CC2CC(N)(C4)C3)cc1 (stereo not drawn) [Compound 95, N^4-(4-(tert-butyl)phenyl)adamantane-1,4-diamine] | 0.1 to 100 | –
8 | CC(C)(C)c1ccc(NC2CCC(CN)CC2)cc1 (stereo not drawn) [Compound 96, N-(4-(aminomethyl)cyclohexyl)-4-(tert-butyl)aniline] | 0.1 to 100 | –
9 | CC(C)(C)c1ccc(NC2C3CC4CC2CC(CN)(C4)C3)cc1 (stereo not drawn) [Compound 98, 5-(aminomethyl)-N-(4-(tert-butyl)phenyl)adamantan-2-amine] | 0.1 to 100 | –
10 | CC1(N)CCC(Nc2ccc3c(c2)CCC3)CC1 (stereo not drawn) [Compound 99, N1-(2,3-dihydro-1H-inden-5-yl)-4-methylcyclohexane-1,4-diamine] | 0.1 to 100 | –
11 | CN1CCC(N2CCC(Nc3ccc(C4CCC(C)(C)CC4)cc3)CC2)CC1 [Compound 100, N-(4-(4,4-dimethylcyclohexyl)phenyl)-1′-methyl-[1,4′-bipiperidin]-4-amine] | – | EC50 (Homo sapiens): 100 to 1000 nM
12 | CC1(C)CCC(c2ccc(NCCN3CCCC3)cc2)CC1 [Compound 101, 4-(4,4-dimethylcyclohexyl)-N-(2-(pyrrolidin-1-yl)ethyl)aniline] | 0.1 to 100 | –
13 | CC1(C)CCC(c2ccc(NC3CCNC(=O)C3)cc2)CC1 (stereo not drawn) [Compound 102, 4-((4-(4,4-dimethylcyclohexyl)phenyl)amino)piperidin-2-one] | 0.1 to 100 | –
14 | CN1CCC(Nc2ccc(C3CCC(C)(C)CC3)cc2)CC1=O (stereo not drawn) [Compound 103, 4-((4-(4,4-dimethylcyclohexyl)phenyl)amino)-1-methylpiperidin-2-one] | 100 to 1000 | –
15 | CC1(C)CCC(c2ccc(NCCN3CCCC3=O)cc2)CC1 [Compound 104, 1-(2-((4-(4,4-dimethylcyclohexyl)phenyl)amino)ethyl) pyrrolidin-2-one] | 100 to 1000 | –
16 | CC1(C)CCC(c2ccc(NCCCCN3CCCC3)cc2)CC1 [Compound 105, 4-(4,4-dimethylcyclohexyl)-N-(4-(pyrrolidin-1-yl)butyl)aniline] | 0.1 to 100 | –
17 | c1cc(C2CCCCC2)ccc1NC1CCNC1 (stereo not drawn) [Compound 108, N-(4-cyclohexylphenyl)pyrrolidin-3-amine] | 100 to 1000 | –
18 | c1cc(C2CCCCC2)ccc1NC1CNC1 [Compound 109, N-(4-cyclohexylphenyl)azetidin-3-amine] | 100 to 1000 | –

Row | Structure (SMILES) | EC50 (Homo sapiens, HT-1080, 20 h) [nM] | also measured
19 | O=C1CC(C(=O)NC2CCC(Nc3ccc(C4CCCCC4)cc3)CC2)CN1 (stereo not drawn) [Compound 110, N-(4-((4-cyclohexylphenyl)amino)cyclohexyl)-5-oxopyrrolidine-3-carboxamide] | 100 to 1000 | –
20 | O=C1NC[C@H](C(=O)NC2CCC(Nc3ccc(C4CCCCC4)cc3)CC2)N1 (stereo partly drawn) [Compound 111, (R)—N-(4-((4-cyclohexylphenyl)amino)cyclohexyl)-2-oxoimidazolidine-4-carboxamide] | 100 to 1000 | –
21 | O=C1CC(C(=O)NC2CC(Nc3ccc(C4CCCCC4)cc3)C2)CN1 (stereo not drawn) [Compound 112, N-(3-((4-cyclohexylphenyl)amino)cyclobutyl)-5-oxopyrrolidine-3-carboxamide] | 100 to 1000 | –
22 | O=C1NC[C@H](C(=O)NC2CC(Nc3ccc(C4CCCCC4)cc3)C2)N1 (stereo partly drawn) [Compound 113, (R)—N-(3-((4-cyclohexylphenyl)amino)cyclobutyl)-2-oxoimidazolidine-4-carboxamide] | 100 to 1000 | –
23 | CC1(C)CCC(c2ccc(NC3CCC(CNC(N)=O)CC3)cc2)CC1 (stereo not drawn) [Compound 116, 1-((4-((4-(4,4-dimethylcyclohexyl)phenyl)amino)cyclohexyl)methyl)urea] | – | EC50 (Homo sapiens): 0.1 to 100 nM
24 | CC1(C)CCC(c2ccc(NC3CCC(CCN)CC3)cc2)CC1 (stereo not drawn) [Compound 118, N-(4-(2-aminoethyl)cyclohexyl)-4-(4,4-dimethylcyclohexyl)aniline] | 0.1 to 100 | –
25 | CC1(N)CCC(Nc2ccc3c(c2)CCCC3)CC1 (stereo not drawn) [Compound 119, 1-methyl-N4-(5,6,7,8-tetrahydronaphthalen-2-yl)cyclohexane-1,4-diamine] | 0.1 to 100 | –
26 | NC1CCC(Nc2ccc(C3CCCCC3)cc2)CC1 (stereo not drawn) [Compound 122, N1-(4-cyclohexylphenyl)cyclohexane-1,4-diamine] | 0.1 to 100 | –
27 | CC(C)(C)c1ccc(NC2CC(N)C2)cc1 (stereo not drawn) [Compound 123, N1-(4-(tert-butyl)phenyl)cyclobutane-1,3-diamine] | 100 to 1000 | –
28 | CC(C)(C)c1ccc(NC2CCC(N)C2)cc1 (stereo not drawn) [Compound 124, N1-(4-(tert-butyl)phenyl)cyclopentane-1,3-diamine] | 100 to 1000 | –
29 | CCc1ccc(NC2CCC(N)CC2)cc1 (stereo not drawn) [Compound 125, N1-(4-ethylphenyl)cyclohexane-1,4-diamine] | 100 to 1000 | –
30 | CC(C)(C)c1ccccc1NC1CCC(N)CC1 (stereo not drawn) [Compound 126, N1-(2-(tert-butyl)phenyl)cyclohexane-1,4-diamine] | 1000 to 10000 | –
31 | CC(C)c1ccc(NC2CCC(N)CC2)cc1 (stereo not drawn) [Compound 127, N1-(4-isopropylphenyl)cyclohexane-1,4-diamine] | 100 to 1000 | –
32 | Cc1ccc(NC2CCC(N)CC2)cc1 (stereo not drawn) [Compound 128, N1-(p-tolyl)cyclohexane-1,4-diamine] | 100 to 1000 | –
33 | CC1(C)CCC(c2ccc(NC3CC(NC(=O)[C@H]4CNC(=O)N4)C3)cc2)CC1 (stereo partly drawn) [Compound 129, (R)—N-(3-((4-(4,4-dimethylcyclohexyl)phenyl)amino)cyclobutyl)-2-oxoimidazolidine-4-carboxamide] | 100 to 1000 | –
34 | CC(C)(C)c1ccc(NCc2cnc[nH]2)cc1 [Compound 130, N-((1H-imidazol-5-yl)methyl)-4-(tert-butyl)aniline] | 100 to 1000 | –
35 | CC1(C)CCC(c2ccc(NC3CCNCC3)cc2)CC1 [Compound 131, N-(4-(4,4-dimethylcyclohexyl)phenyl)piperidin-4-amine] | 0.1 to 100 | –
36 | NC1CCC(Nc2ccc(C3CCCCC3)cc2)CC1 (stereo not drawn) [Compound 133, N1-(4-cyclohexylphenyl)cyclohexane-1,4-diamine] | – | EC50: 0.1 to 100 nM

More lines, main results first:

Row | EC50 (Homo sapiens, HT-1080, 20 h) [nM] | Structure (SMILES) | also measured
37 | 0.1 to 100 | NC1CC(Nc2ccc(C3CCCCC3)cc2)C1 (stereo not drawn) [Compound 132, N1-(4-cyclohexylphenyl)cyclobutane-1,3-diamine] | –
38 | 1000 to 10000 | NC1CCC(Nc2ccc(F)cc2)CC1 (stereo not drawn) [Compound 134, N1-(4-fluorophenyl)cyclohexane-1,4-diamine] | –
39 | 0.1 to 100 | CCCCCc1ccc(NC2CCC(N)CC2)cc1 (stereo not drawn) [Compound 136, N1-(4-pentylphenyl)cyclohexane-1,4-diamine] | –
40 | 0.1 to 100 | CCCCc1ccc(NC2CCC(N)CC2)cc1 (stereo not drawn) [Compound 137, N1-(4-butylphenyl)cyclohexane-1,4-diamine] | –
41 | 100 to 1000 | CC1CC(c2ccc(NC3CCC(N)CC3)cc2)CC(C)O1 (stereo not drawn) [Compound 138, N1-(4-(2,6-dimethyltetrahydro-2H-pyran-4-yl)phenyl)cyclohexane-1,4-diamine] | –
42 | 0.1 to 100 | CC(N)C1CCC(Nc2ccc(C3CCC(C)(C)CC3)cc2)CC1 (stereo not drawn) [Compound 140, N-(4-(1-aminoethyl)cyclohexyl)-4-(4,4-dimethylcyclohexyl)aniline] | –
43 | 100 to 1000 | CC1(C)CCC(c2ccc(NC3CNC(=O)C3)cc2)CC1 (stereo not drawn) [Compound 141, 4-((4-(4,4-dimethylcyclohexyl)phenyl)amino)pyrrolidin-2-one] | –
44 | 0.1 to 100 | CC1(C)CCC(c2ccc(NC3CC(C(N)=O)C3)cc2)CC1 (stereo not drawn) [Compound 145, 3-((4-(4,4-dimethylcyclohexyl)phenyl)amino)cyclobutane-1-carboxamide] | –
45 | 0.1 to 100 | CNC1CCC(Nc2ccc(C(C)(C)C)cc2)CC1 (stereo not drawn) [Compound 147, N1-(4-(tert-butyl)phenyl)-N4-methylcyclohexane-1,4-diamine] | –
46 | 100 to 1000 | CC(C)(C)c1ccc(NC2CCCNC2)cc1 (stereo not drawn) [Compound 150, N-(4-(tert-butyl)phenyl)piperidin-3-amine] | –
47 | 0.1 to 100 | CC1(C)CCC(c2ccc(NC3CCC(O)C3)cc2)CC1 (stereo not drawn) [Compound 151] | –
48 | 100 to 1000 | CC(C)(C)c1ccc(NC2CCCCC2N)cc1 (stereo not drawn) [Compound 152, N1-(4-(tert-butyl)phenyl)cyclohexane-1,2-diamine] | –
49 | 100 to 1000 | CC1(C)CCC(c2ccc(NC3CCN(C(=O)[C@H]4CNC(=O)N4)CC3)cc2)CC1 [Compound 154, (R)-4-(4-((4-(4,4-dimethylcyclohexyl)phenyl)amino)piperidine-1-carbonyl) imidazolidin-2-one] | –
50 | 0.1 to 100 | CC1(C)CCC(c2ccc(NC3CCC(NC(=O)[C@H]4CNC(=O)N4)CC3)cc2)CC1 (stereo partly drawn) [Compound 156C] | –
51 | 100 to 1000 | CC1(C)CCC(c2ccc(NCCNC(=O)[C@H]3CNC(=O)N3)cc2)CC1 [Compound 158, (R)—N-(2-((4-(4,4-dimethylcyclohexyl)phenyl)amino)ethyl)-2-oxoimidazolidine-4-carboxamide] | –
52 | 1000 to 10000 | NC1CCC(Nc2ccc(F)c(F)c2)CC1 (stereo not drawn) [Compound 160, N1-(3,4-difluorophenyl)cyclohexane-1,4-diamine] | –
53 | 1000 to 10000 | NC1CCC(Nc2ccc(Cl)cc2)CC1 (stereo not drawn) [Compound 161, N1-(4-chlorophenyl)cyclohexane-1,4-diamine] | –
54 | 100 to 1000 | NC1CCC(Nc2ccc3c(c2)CCC3)CC1 (stereo not drawn) [Compound 162, N1-(2,3-dihydro-1H-inden-5-yl)cyclohexane-1,4-diamine] | –
